# Measured values published in paper PMC3495162 (Journal of medicinal chemistry, 2012).
# “Also recorded” adds a separate entry of the source. Read-outs that look alike come from different tables or passages of the source.
# Columns and labels:
# Bcl-xL [1] = target: T1, Bcl-xL (Homo sapiens, UniProt Q07817); assay: Fluorescence polarization competitive binding assay, Bcl-xL; conditions: for Times less potent than 5 in binding affinity to Bcl-xL: relative to compound 5
# Mcl-1 = Mcl-1 (Homo sapiens, UniProt Q07820); assay: Fluorescence polarization competitive binding assay, Mcl-1; conditions: at concentrations as high as 5 μM
# Sequence of Mcl-1 (Q07820 whole entry): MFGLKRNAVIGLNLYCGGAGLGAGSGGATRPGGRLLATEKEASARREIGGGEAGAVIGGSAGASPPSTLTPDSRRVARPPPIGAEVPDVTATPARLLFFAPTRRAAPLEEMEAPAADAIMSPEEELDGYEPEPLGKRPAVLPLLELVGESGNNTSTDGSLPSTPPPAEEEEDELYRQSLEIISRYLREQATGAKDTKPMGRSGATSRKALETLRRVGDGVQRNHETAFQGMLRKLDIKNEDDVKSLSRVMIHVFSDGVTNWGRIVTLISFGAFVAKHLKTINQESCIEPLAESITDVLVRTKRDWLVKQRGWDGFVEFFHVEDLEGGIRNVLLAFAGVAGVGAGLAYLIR
# [2] = Maximum tolerated dose determination; conditions: 75 mg/kg for 28, 50 mg/kg for 30, 25 mg/kg for 31
# H146 xenograft tumors = assay: Pharmacodynamics: PARP and caspase-3 cleavage in xenograft tumor tissue; type: in vivo, SCID mice; conditions: single i.v. dose, 28 at 50 mg/kg or 30 at 25 mg/kg; 3- and 6-h time-points
# H146 cell line = assay: Cell death assay; type: cell-based; conditions: for Potency in induction of cell death relative to 1 and 2: H146, 24 hr; for Concentration with a similar effect (>50% of H146 cells undergoing cell death): 24 hr treatment, trypan blue
# H146 cancer cells = assay: Western blot of PARP and caspase-3 cleavage in cells; type: cell-based; conditions: 24 hr
# [3] = test system: H146 xenograft tumor model; assay: Antitumor efficacy in H146 xenograft tumor model; type: in vivo, SCID mice; conditions: for Antitumor activity in H146 xenograft tumor model / Weight loss in tumor-bearing animals compared to the vehicle control: 28 at 50 mg/kg, 30 at 25 mg/kg, i.v., daily, 5 days a week for two weeks
# [4] = test system: H146 small-cell lung cancer cell line; assay: Cell growth inhibition assay, H146; type: cell-based; conditions: for Times less potent than 30 and 31 in inhibition of cell growth, H146: relative to compounds 30 and 31
# [5] = test system: H1417 small-cell lung cancer cell line; assay: Cell growth inhibition assay, H1417; type: cell-based; conditions: for Times less potent than 30 and 31 in inhibition of cell growth, H1417: relative to compounds 30 and 31
# [6] = test system: multiple xenograft tumor models; conditions: cited from earlier work
# Bcl-2 [7] = target: T2, Bcl-2 (Homo sapiens, UniProt P10415); assay: Fluorescence polarization competitive binding assay, Bcl-2
# T2 sequence (P10415 whole entry): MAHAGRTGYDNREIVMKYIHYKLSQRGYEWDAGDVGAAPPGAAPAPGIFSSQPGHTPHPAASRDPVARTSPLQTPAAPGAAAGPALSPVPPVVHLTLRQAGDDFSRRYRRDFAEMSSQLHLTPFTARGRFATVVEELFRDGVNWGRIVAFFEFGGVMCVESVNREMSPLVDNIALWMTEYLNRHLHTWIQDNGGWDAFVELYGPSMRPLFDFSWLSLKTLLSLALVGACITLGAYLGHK
# Bcl-2 [8] = target: T2, Bcl-2; conditions: read-out: Bcl-2 Ki; cited from earlier work
# Bcl-xL [9] = target: T1, Bcl-xL; conditions: read-out: Bcl-xL Ki; cited from earlier work
# [10] = test system: H146 xenograft tumor model; conditions: well-tolerated dose-schedule, mice; cited from earlier work
# [11] = test system: chronic lymphocytic leukemia; conditions: Phase I/II clinical trials; cited from earlier work
# small cell lung cancer = conditions: Phase I/II clinical trials; cited from earlier work
# T1 sequence (Q07817 whole entry): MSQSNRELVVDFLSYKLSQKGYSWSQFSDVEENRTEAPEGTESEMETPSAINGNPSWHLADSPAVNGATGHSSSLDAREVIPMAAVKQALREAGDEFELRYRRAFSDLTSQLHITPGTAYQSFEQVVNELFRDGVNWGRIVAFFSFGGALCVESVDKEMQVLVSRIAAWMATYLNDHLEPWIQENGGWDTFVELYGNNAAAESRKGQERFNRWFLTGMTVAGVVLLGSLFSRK
smiles,measurement,setting,value
"Cc1c(C(=O)NCCCN2CCN(C)CC2)c(-c2cccc(N3CCN(c4ccc(NS(=O)(=O)c5ccccc5)cc4)CC3)c2)c(-c2ccc(Cl)cc2)n1C [Compound 6, 5-(4-Chlorophenyl)-1,2-dimethyl-N-(3-(4-methylpiperazin-1-yl)propyl)-4-(3-(4-(4-(phenylsulfonamido)phenyl)piperazin-1-yl)phenyl)-1H-pyrrole-3-carboxamide]",Times less potent than 5 in binding affinity to Bcl-xL,Bcl-xL [1],30 times
"Cc1c(C(=O)NCCCN2CCN(C)CC2)c(-c2cccc(N3CCN(c4ccc(NS(=O)(=O)c5cccc(Br)c5)cc4)CC3)c2)c(-c2ccc(Cl)cc2)n1C [Compound 9, 5-(4-Chlorophenyl)-4-(3-(4-(4-(3-bromophenylsulfonamido)phenyl)piperazin-1-yl)phenyl) -1,2-dimethyl-N-(3-(4-methylpiperazin-1-yl)propyl)-1H-pyrrole-3-carboxamide]",Times less potent than 5 in binding affinity to Bcl-xL,Bcl-xL [1],slightly less potent than 5
"Cc1c(C(=O)O)c(-c2cccc(N3CCN(c4ccc(NS(=O)(=O)c5ccc(N[C@H](CCN(C)C)CSc6ccccc6)c(S(=O)(=O)C(F)(F)F)c5)cc4)CC3)c2)c(-c2ccc(Cl)cc2)n1C [Compound 22, (R)-5-(4-Chlorophenyl)-4-(3-(4-(4-(4-(4-(dimethylamino)-1-(phenylthio)butan-2-ylamino)-3-(trifluoromethylsulfonyl)phenylsulfonamido)phenyl)piperazin-1-yl)phenyl)-1,2-dimethyl-1H-pyrrole-3-carboxylic Acid]",Binding to Mcl-1,Mcl-1,no appreciable binding
same,Ki,Bcl-xL [1],< 1 nM
"Cc1c(C(=O)O)c(-c2cccc(N3CCN(c4ccc(NS(=O)(=O)c5ccc(N[C@H](CCN6CCC(O)CC6)CSc6ccccc6)c(S(=O)(=O)C(F)(F)F)c5)cc4)CC3)c2)c(-c2ccc(Cl)cc2)n1C [Compound 28, (R)-5-(4-Chlorophenyl)-4-(3-(4-(4-(4-(4-(4-hydroxypiperidin-1-yl)-1-(phenylthio)butan-2-ylamino)-3-(trifluoromethylsulfonyl)phenylsulfonamido)phenyl)piperazin-1-yl)phenyl)-1,2-dimethyl-1H-pyrrole-3-carboxylic Acid]",Weight loss at higher doses,[2],more than 10%
same,Cleavage of PARP and caspase-3 in H146 tumor tissues,H146 xenograft tumors,robust cleavage of PARP and caspase-3
same,Potency in induction of cell death relative to 1 and 2,H146 cell line,somewhat less potent than 1 and 2
same,Concentration inducing clear cleavage of PARP and activation of caspase-3,H146 cancer cells,100 nM
same,Ki,Bcl-xL [1],< 1 nM
same,Antitumor activity in H146 xenograft tumor model,[3],"effective in inhibition of tumor growth; also recorded: effectively inhibits tumor growth, it fails to induce tumor regression"
same,Weight loss in tumor-bearing animals compared to the vehicle control,[3],less than 10%
"CCCn1c(C)c(C(=O)O)c(-c2cccc(N3CCN(c4ccc(NS(=O)(=O)c5ccc(N[C@H](CCN6CCC(O)CC6)CSc6ccccc6)c(S(=O)(=O)C(F)(F)F)c5)cc4)CC3)c2)c1-c1ccc(Cl)cc1 [Compound 32, (R)-5-(4-Chlorophenyl)-4-(3-(4-(4-(4-(4-(4-hydroxypiperidin-1-yl)-1-(phenylthio)butan-2-ylamino)-3-(trifluoromethylsulfonyl)phenylsulfonamido)phenyl)piperazin-1-yl)phenyl)-2-methyl-1-propyl-1H-pyrrole-3-carboxylic Acid]","Times less potent than 30 and 31 in inhibition of cell growth, H146",[4],> 10 times
same,"Times less potent than 30 and 31 in inhibition of cell growth, H1417",[5],> 10 times
same,Ki,Bcl-xL [1],< 1 nM
"CN(C)CC[C@H](CSc1ccccc1)Nc1ccc(S(=O)(=O)NC(=O)c2ccc(N3CCN(Cc4ccccc4-c4ccc(Cl)cc4)CC3)cc2)cc1[N+](=O)[O-] [Compound 1, reference compound]",Antitumor activity in xenograft tumor models,[6],efficiently induce tumor regression
same,Concentration with a similar effect (>50% of H146 cells undergoing cell death),H146 cell line,30 to 100 nM
"Cc1c(C(=O)O)c(-c2cccc(N3CCN(c4ccc(NS(=O)(=O)c5ccc(N[C@H](CCN6CCOCC6)CSc6ccccc6)c(S(=O)(=O)C(F)(F)F)c5)cc4)CC3)c2)c(-c2ccc(Cl)cc2)n1C [Compound 23, (R)-5-(4-Chlorophenyl)-1,2-dimethyl-4-(3-(4-(4-(4-(4-morpholino-1-(phenylthio)butan-2-ylamino)-3-(trifluoromethylsulfonyl)phenylsulfonamido)phenyl)piperazin-1-yl)phenyl)-1H-pyrrole-3-carboxylic Acid]","Times less potent than 22 in inhibition of cell growth, H146",[4]; relative to compound 22,3–5 times
same,"Times less potent than 22 in inhibition of cell growth, H1417",[5]; relative to compound 22,3–5 times
"CCn1c(C)c(C(=O)O)c(-c2cccc(N3CCN(c4ccc(NS(=O)(=O)c5ccc(N[C@H](CCN6CCC(O)CC6)CSc6ccccc6)c(S(=O)(=O)C(F)(F)F)c5)cc4)CC3)c2)c1-c1ccc(Cl)cc1 [Compound 30, (R)-5-(4-Chlorophenyl)-1-ethyl-4-(3-(4-(4-(4-(4-(4-hydroxypiperidin-1-yl)-1-(phenylthio)butan-2-ylamino)-3-(trifluoromethylsulfonyl)phenylsulfonamido)phenyl)piperazin-1-yl)phenyl)-2-methyl-1H-pyrrole-3-carboxylic Acid]",Weight loss at higher doses,[2],more than 10%
same,Ki,Bcl-2 [7],< 1 nM
same,Cleavage of PARP and caspase-3 in H146 tumor tissues,H146 xenograft tumors,robust cleavage of PARP and caspase-3
same,Potency in induction of cell death relative to 1 and 2,H146 cell line,several times more potent than 1 and 2
same,Concentration inducing clear cleavage of PARP and activation of caspase-3,H146 cancer cells,10 nM
same,Ki,Bcl-xL [1],< 1 nM
same,Antitumor activity in H146 xenograft tumor model,[3],"rapid, complete and durable tumor regression"
same,Weight loss in tumor-bearing animals compared to the vehicle control,[3],less than 10%
same,Tumor-free mice at day 47 (15 days post-treatment),"[3]; 30 at 25 mg/kg i.v., 7 mice treated",all mice were tumor-free
"Cc1c(C(=O)NCCCN2CCN(C)CC2)c(-c2cccc(N3CCN(c4ccc(NS(=O)(=O)c5cccc(S(=O)(=O)C(F)(F)F)c5)cc4)CC3)c2)c(-c2ccc(Cl)cc2)n1C [Compound 18, 5-(4-Chlorophenyl)-1,2-dimethyl-N-(3-(4-methylpiperazin-1-yl)propyl)-4-(3-(4-(4-(3-(trifluoromethylsulfonyl)phenylsulfonamido)phenyl)piperazin-1-yl)phenyl)-1H-pyrrole-3-carboxamide]",Times less potent than 5 in binding affinity to Bcl-xL,Bcl-xL [1],as potent as 5
Cc1c(C(=O)O)c(-c2cccc(N3CCN(c4ccc(NS(=O)(=O)c5ccc(N[C@H](CCN(C)C)CSc6ccccc6)c([N+](=O)[O-])c5)cc4)CC3)c2)c(-c2ccc(Cl)cc2)n1C [Compound 4],Binding to Mcl-1,Mcl-1,no appreciable binding
same,Ki,Bcl-xL [1],< 1 nM
CCn1c(C)c(C(=O)O)c(-c2cccc(N3CCN(c4ccc(NS(=O)(=O)c5ccc(N[C@H](CCN(C)C)CSc6ccccc6)c([N+](=O)[O-])c5)cc4)CC3)c2)c1-c1ccc(Cl)cc1 [Compound 3],Ki,Bcl-2 [8],< 1 nM
same,Ki,Bcl-xL [9],< 1 nM
same,Binding to Mcl-1,Mcl-1,no appreciable binding
same,Antitumor activity in H146 xenograft model,[10],fails to achieve durable tumor regression
"Cc1c(C(=O)O)c(-c2cccc(N3CCN(c4ccc(NS(=O)(=O)c5ccc(N[C@H](CCN6CCC(O)CC6)CSc6ccccc6)c(S(=O)(=O)C(F)(F)F)c5)cc4)CC3)c2)c(-c2ccc(Cl)cc2)n1C(C)C [Compound 31, (R)-5-(4-Chlorophenyl)-4-(3-(4-(4-(4-(4-(4-hydroxypiperidin-1-yl)-1-(phenylthio)butan-2-ylamino)-3-(trifluoromethylsulfonyl)phenylsulfonamido)phenyl)piperazin-1-yl)phenyl)-1-isopropyl-2-methyl-1H-pyrrole-3-carboxylic Acid]",Weight loss at higher doses,[2],more than 10%
same,Potency in induction of cell death relative to 1 and 2,H146 cell line,several times more potent than 1 and 2
same,Ki,Bcl-xL [1],< 1 nM
CC1(C)CCC(c2ccc(Cl)cc2)=C(CN2CCN(c3ccc(C(=O)NS(=O)(=O)c4ccc(N[C@H](CCN5CCOCC5)CSc5ccccc5)c(S(=O)(=O)C(F)(F)F)c4)cc3)CC2)C1 [Compound 2],Antitumor activity in xenograft tumor models,[6],efficiently induce tumor regression
same,Antitumor activity in patients in chronic lymphocytic leukemia,[11],evidence of promising antitumor activity
same,Concentration with a similar effect (>50% of H146 cells undergoing cell death),H146 cell line,30 to 100 nM
same,Concentration inducing clear cleavage of PARP and activation of caspase-3,H146 cancer cells,30 nM
same,Single-agent activity in patients with small cell lung cancer,small cell lung cancer,very limited single-agent activity
"CCCCn1c(C)c(C(=O)O)c(-c2cccc(N3CCN(c4ccc(NS(=O)(=O)c5ccc(N[C@H](CCN6CCC(O)CC6)CSc6ccccc6)c(S(=O)(=O)C(F)(F)F)c5)cc4)CC3)c2)c1-c1ccc(Cl)cc1 [Compound 33, (R)-1-Butyl-5-(4-chlorophenyl)-4-(3-(4-(4-(4-(4-(4-hydroxypiperidin-1-yl)-1-(phenylthio)butan-2-ylamino)-3-(trifluoromethylsulfonyl)phenylsulfonamido)phenyl)piperazin-1-yl)phenyl)-2-methyl-1H-pyrrole-3-carboxylic acid]","Times less potent than 30 and 31 in inhibition of cell growth, H146",[4],> 10 times
same,"Times less potent than 30 and 31 in inhibition of cell growth, H1417",[5],> 10 times
same,Ki,Bcl-xL [1],< 1 nM
